Reference: EP0334218A1, “Solid, especially suited for oral and rectal adiministration, etofenamate-containing preparations” (HEXAL-PHARMA GMBH & CO. KG, priority 1988, dated 1989)
In brackets after ≈: the same amount, converted by molar mass.

Test: Solubility behaviour (dissolved etofenamate over time) in distilled water
Format: physicochemical
Details: 22° C, read-out: Etofenamat gelöst
Procedure: Vergleich des Löslichkeitsverhaltens von reinem Etofenamat und zwei Etofenamat-Cyclodextrinzubereitungen gemäß der Erfindung:
Die Untersuchungen wurden in destilliertem Wasser bei 22° C durchgeführt und erbrachten die folgenden Ergebnisse: […]

Question: With O=C(OCCOCCO)c1ccccc1Nc1cccc(C(F)(F)F)c1 [Etofenamat, 2-(2-Hydroxyethoxy)-ethyl-N-(α,α,α-trifluoro-m-tolyl)-anthranilat] as the compound, how does the solubility at 1 min (1 min) read?
Answer: The solubility at 1 min was 9 µg/mL (≈ 24.4 µM).

Question: And the solubility at 0.05 h (3 min)?
Answer: Its solubility at 0.05 h is 11 µg/mL (≈ 29.8 µM).

Question: And the solubility at 5 min (5 min)?
Answer: Its solubility at 5 min is 11 µg/mL (≈ 29.8 µM).

Question: And the solubility at 10 min (10 min)?
Answer: The solubility at 10 min was 11 µg/mL (≈ 29.8 µM).

Question: What about the solubility at 0.25 h (15 min) of the same compound?
Answer: Its solubility at 0.25 h is 13 µg/mL (≈ 35.2 µM).

Question: What about the solubility at 0.5 h (30 min) of the same compound?
Answer: The solubility at 0.5 h was 13 µg/mL (≈ 35.2 µM).

Question: What about the solubility at 0.75 h (45 min) of the same compound?
Answer: The solubility at 0.75 h was 11 µg/mL (≈ 29.8 µM).

Question: What about the solubility at 1 h (60 min) of the same compound?
Answer: The solubility at 1 h was 12 µg/mL (≈ 32.5 µM).
